The record followed here is article PMC10692228, “A simple method for developing lysine targeted covalent protein reagents” (Nature Communications, 2023).

The target in assay [1] is human 14-3-3σ with an N-terminal His6-tag (human) (UniProt P31947).
Assay [2] shares this target. The source holds these as a separate data set.
For assay [3] the target is unchanged. This is another data set of the same source.
Assay [4] relates to 14-3-3 proteins in A549 lysates. The assay can be described thus: Labeling of 14-3-3 proteins by BODIPY-modified peptides in A549 lysates (SDS-PAGE fluorescence, western blot). The assay is classed as binding. The conditions noted are these: BODIPY-labeled derivatives of the peptides; 1 µM (peptides 3, 8) or 0.25 µM (peptide 12), lysate […], 25 °C, 1 h or 22 h. As for the experimental part:
A549 cells were obtained from biological services of the Weizmann Institute. For experiments in lysates, A549 cells were grown in DMEM + FBS. The cells were washed with PBS, scraped from the plate and centrifuged 200 × g for 5 min. […] Cells were incubated in the lysis buffer and centrifuged at 21,000 × g for 10 min at 4 °C. The protein concentration was estimated using BCA, and the lysate was diluted to 1.9 mg/ml in the lysis buffer. […] Then, 13.3 μl of 4X LDS samples buffer with 20 mM DTT was added and the samples were heated for 10 min at 70 °C. The samples were loaded on Bis-Tris gradient gels (4-20%, Genscript) and run using Tris-MOPS buffer at 60 mA/200 V. […] Images were processed and generated using ImageLab. […] Afterwards the gel was directly imaged in ChemiDoc. page 8: Supplementary Figure 7. Peptide binding selectivity in cell lysates and media. a) Raw images for the western blot experiment depicted in figure 5. Experiments was repeated 3 times. Top row: images for experiment done on A549 lysates. Bottom row: Images from extracellular medium. b) Direct gel imaging for experiment in which 1 μ[…] lysates at the indicated concentrations for 22 hours at 25°C. The same amount of lysate was loaded in each lane (28.5 μg). The intense fluorescence at the bottom comes from unbound peptide.

In assay [5] the test system is 14-3-3 proteins in extracellular medium of A549 cells. The assay can be described thus: Detection of 14-3-3 proteins by BODIPY-modified peptides in extracellular medium of A549 cells. The assay is classed as binding. Conditions: BODIPY-labeled derivatives; concentrated serum-free medium of A549 cells grown 24 h or 48 h. The procedure:
For experiments in medium, after growing the cells they were transferred to DMEM without FBS, followed by incubation for either 24 h or 48 h. After the incubation, 8.5 ml of the medium was filtered through a 0.2 µm filter, concentrated using a centrifugal concentrator (vivaspin, cutoff 8000–10,000 Da) to ~200 µl, and diluted to 8 ml using HEPES 50 mM pH = 7.5, 150 mM NaCl. This was followed by 2 additional rounds of dilution and concentration to ~200 µl. The samples were then diluted to 300 µl with IGEPAL added to 1% as well as protease inhibitors and PhosStop. 38 µl samples from the medium were then incubated with the peptides and analyzed as performed for the lysate, with 15 s exposure for fluorescence and 50 second exposure for chemiluminescence.

The next assay concerns 14-3-3σ. The experiment in a line: Covalent labeling of 14-3-3σ by peptides, intact protein LC/MS. The conditions noted are these: 5 µM peptide, 2 µM 14-3-3σ; for 14-3-3σ full peptide adduct (degree of labeling): 25 °C; for degree of labeling of 14-3-3σ: 37 C. The assay is classed as binding, human. As for the experimental part: The LC/MS runs for 14-3-3σ were performed on a Waters ACQUITY UPLC class H instrument, in positive ion mode using electrospray ionization. […] The column was held at 40 °C and the autosampler at 10 °C. […] The run flow was 0.4 mL/min. […] The MS data were collected on a Waters SQD2 detector with an m/z range of 2–3071.98 at a range of 900–1900 m/z. The desolvation temperature was 500 °C with a flow rate of 800 L/h. The voltages used were 1.00 kV for the capillary and 24 V for the cone. MassLynx version 4.2 was used to operate the LCMS and analyze the data. Raw data were processed using openLYNX and deconvoluted using MaxEnt with a range of 28,000: 34,000 Da and a resolution of 1 Da/channel. […] For analysis, 24 μl sample was mixed with 6 μl of 2.4% formic acid in water and then 10 μl were injected to intact protein LCMS.

A value given as a limit tells only on which side of the number the result lay.

UniProt P31947, sequence (P31947 whole entry): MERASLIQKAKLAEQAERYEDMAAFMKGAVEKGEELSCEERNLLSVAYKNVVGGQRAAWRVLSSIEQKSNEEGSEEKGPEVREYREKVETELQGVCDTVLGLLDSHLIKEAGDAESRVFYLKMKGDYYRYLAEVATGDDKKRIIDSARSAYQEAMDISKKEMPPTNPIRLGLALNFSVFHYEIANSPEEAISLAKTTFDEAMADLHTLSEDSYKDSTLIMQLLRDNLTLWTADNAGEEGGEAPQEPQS

As to Peptide 3 (Ac-RSA-(pT)-(mC)-PSL-NH2), the percent covalent labeling after 48 h in assay [1] was 75%. In addition, in assay [2], the percent covalent labeling (overnight, 200 µM peptide) was determined as 51%. This substance registered a percent covalent labeling within 5 h in assay [3] of 60%.

In assay [1], “Peptide 11 (Ac-RAH-(pT)-SPAS-(mC)-Q-NH2)” returned a percent covalent labeling after 48 h of 100%. The percent covalent labeling (overnight, 200 µM peptide) in assay [2] was determined as 57%. The percent free 14-3-3σ remaining within 2.5 h in assay [3] is less than 5%.

On to Peptide 8 (Ac-RAH-(pT)-(mC)-PASLQ-NH2), for which the percent covalent labeling after 48 h in assay [1] came to 90%. The substance further registered a percent covalent labeling (overnight, 200 µM peptide) in assay [2] of 35%. This substance also displayed a percent covalent labeling within 5 h in assay [3] of 80%.

With “Ac-RAH-(pT)-SPASL-X-NH2 [Peptide 12, reference compound]”, the “labeling of proteins in A549 lysates” value in assay [4] is “selectively labeled 14-3-3σ and generated a single fluorescent band”. Moreover, the “detection of 14-3-3 proteins in extracellular medium” value in assay [5] is recorded as 14-3-3σ was not detected.

Consider “Ac-RAH-(pT)-(mC)-PASLQ-NH2 [Peptide 8, Methacrylate phosphopeptide derived from YAP-1 (PDB 3MHR)]”, for which, in assay [4], the “labeling of proteins in A549 lysates” value is recorded as “formed two main bands”. The “14-3-3σ full peptide adduct (degree of labeling)” value amounted to 0 with 14-3-3σ (intact protein LC/MS, time 0 h); 34.14 in the assay with 14-3-3σ (time 1 h (60 min)); 55.96 in the assay on 14-3-3σ (time 2.5 h (150 min)); 74.24 with 14-3-3σ (time 5 h (300 min)); 86.25 in the assay on 14-3-3σ (time 24 h (1440 min)). Further, the “degree of labeling of 14-3-3σ” value in the assay with 14-3-3σ (LC/MS, time 0 h) was 0; in the assay with 14-3-3σ (time 35 min), 53.08; with 14-3-3σ (time 70 min), 70.97; with 14-3-3σ (time 1.75 h) it was 80.85; in the assay on 14-3-3σ (time 4 h) it was 93.18; in the assay on 14-3-3σ (time 8 h), 91.76. The “increase of the rate of labeling at 37 °C” value with 14-3-3σ (37 °C versus 25 °C) is “roughly 4 fold”.
